This is an account of results in article PMC4413211, “Esters of the Marine-Derived Triterpene Sipholenol A Reverse P-GP-Mediated Drug Resistance” (Marine Drugs, 2015).

The target of data set [1] is T1, P-glycoprotein (P-gp/ABCB1) (Homo sapiens, UniProt P08183). As to the kind of experiment: Vanadate-sensitive ATPase stimulation in recombinant human P-gp membranes; supported by [3H]-paclitaxel accumulation/efflux in cells. The format is biochemical. Details: Recombinant human P-gp membrane.
The next data set relates to T2, SW620/Ad300.
T2 construct: doxorubicin-selected, P-gp overexpressing
As to the kind of experiment: cells. Details: MTT cytotoxicity assay, absorbance at 570 nm. The following applies: Homo sapiens, SW620/AD300, 72 h. The procedure: (§1) The MTT colorimetric assay was used to detect the sensitivity of cells to anticancer drugs. Cells were harvested with trypsin treatment. After washing with PBS, cells were resuspended in the culture media. Cells with a final concentration of 5 × 10^3 cells/well were seeded evenly into 96-well plates with 160 μL media. For the reversal experiments, SSJ compounds, verapamil, FTC or PAK104P (20 μL/well) was added followed by different concentrations of chemotherapeutic drugs (20 μL/well) into designated wells. After 72 h of incubation, 20 μL of MTT solution (5 mg/mL) was added to each well, and the plate was further incubated for 4 h, allowing viable cells to convert the yellow colored MTT into dark-blue formazan crystals. Subsequently, the medium was discarded, and 100 μL of dimethylsulfoxide (DMSO) was added into each well to dissolve the formazan crystals. The absorbance was determined at 570 nm by an OPSYS Microplate Reader from DYNEX Technologies Inc. (Chantilly, VA, USA) followed previously described protocol. The fold of resistance was calculated by dividing the IC50 (concentrations required to inhibit growth by 50%) of the MDR cells by that of the parental sensitive cells. Sipholane analogs (14 compounds) were first tested for cytotoxicity using MTT assay on colon cancer cells SW620 (drug-sensitive) and SW620/Ad300 (drug-resistant). […] Because these compounds were used at a concentration of 5 μM, which is the non-toxic concentration for all of them, they were considered to have no direct cytotoxic effect on cells. HEK293/pcDNA3.1, HEK/ABCB1, HEK/ABCG2 and HEK/ABCC1 cells were generated by transfecting the HEK293 cells with either empty pcDNA3.1 vector, ABCB1 expression vector, ABCG2 expression vector or ABCC1 expression vector respectively. HEK/ABCC1 was generated in the laboratory of Suresh V. Ambudkar (NCI, NIH, Bethesda, MD, USA). The human colon cancer cell line SW620 and doxorubicin-selected P-gp overexpressing SW620/Ad300 cell line were used for the reversal study. SW620, SW620/Ad300 and HEK/ABCG2 cells were also kindly provided by Susan Bates and Robert Robey (NCI, NIH, Bethesda, MD, USA). All the cell lines were grown as adherent monolayers in flasks with DMEM culture medium (GE Healthcare Life Sciences, Logan, UT, USA) supplemented with 10% bovine serum in a humidified incubator containing of 5% CO2 at 37 °C.

The next data set has as its system SW620. As to the kind of experiment: cells. Also noted: species or system SW620; SW620/Ad300; MTT cytotoxicity assay, absorbance at 570 nm. The following applies: Homo sapiens, SW-620, 72 h. The procedure: as §1
The target of data set [2] is T1, P-glycoprotein (P-gp/ABCB1).

T1 sequence (P08183 whole entry): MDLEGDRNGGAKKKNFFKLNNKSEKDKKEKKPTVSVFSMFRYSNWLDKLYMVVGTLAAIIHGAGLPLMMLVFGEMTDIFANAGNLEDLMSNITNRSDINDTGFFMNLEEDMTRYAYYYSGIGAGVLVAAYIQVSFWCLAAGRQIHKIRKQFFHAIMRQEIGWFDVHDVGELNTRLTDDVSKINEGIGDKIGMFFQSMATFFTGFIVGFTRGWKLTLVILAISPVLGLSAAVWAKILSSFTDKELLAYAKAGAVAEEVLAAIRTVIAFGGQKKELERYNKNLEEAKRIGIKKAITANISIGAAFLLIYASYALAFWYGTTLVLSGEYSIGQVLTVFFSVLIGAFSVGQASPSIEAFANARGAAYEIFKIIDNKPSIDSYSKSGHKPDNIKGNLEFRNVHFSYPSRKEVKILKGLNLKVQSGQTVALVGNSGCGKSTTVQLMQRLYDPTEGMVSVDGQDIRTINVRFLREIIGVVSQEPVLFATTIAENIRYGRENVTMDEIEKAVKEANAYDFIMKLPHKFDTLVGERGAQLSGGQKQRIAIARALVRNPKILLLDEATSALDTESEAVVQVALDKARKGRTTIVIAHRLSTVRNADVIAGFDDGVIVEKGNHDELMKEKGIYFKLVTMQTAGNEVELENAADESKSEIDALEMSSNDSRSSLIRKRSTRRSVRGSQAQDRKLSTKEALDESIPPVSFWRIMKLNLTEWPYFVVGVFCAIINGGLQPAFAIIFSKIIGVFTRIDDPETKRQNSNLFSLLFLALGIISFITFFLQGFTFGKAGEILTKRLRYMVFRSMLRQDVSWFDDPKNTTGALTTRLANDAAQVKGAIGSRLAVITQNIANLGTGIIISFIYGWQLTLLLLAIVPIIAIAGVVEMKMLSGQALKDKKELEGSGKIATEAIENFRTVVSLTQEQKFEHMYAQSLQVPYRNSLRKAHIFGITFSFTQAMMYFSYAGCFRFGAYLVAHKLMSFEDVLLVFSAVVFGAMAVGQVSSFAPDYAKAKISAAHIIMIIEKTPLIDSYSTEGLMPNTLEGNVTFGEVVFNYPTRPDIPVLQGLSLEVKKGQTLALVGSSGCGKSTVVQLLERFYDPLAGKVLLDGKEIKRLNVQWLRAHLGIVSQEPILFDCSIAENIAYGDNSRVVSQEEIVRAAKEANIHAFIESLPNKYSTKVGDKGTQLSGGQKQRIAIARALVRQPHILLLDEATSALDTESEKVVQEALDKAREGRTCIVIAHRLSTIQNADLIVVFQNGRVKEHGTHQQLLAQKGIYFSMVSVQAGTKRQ

Usually EC50 stands for the concentration giving half of the maximal effect. Usually IC50 stands for the point on the concentration scale where inhibition reaches its midpoint. A high value points to weaker potency. As for `CC(=O)O[C@H]1CC[C@]2(C)[C@H](CC[C@@](C)(O)[C@H]2CC[C@H]2C(C)=CC[C@H]3[C@H](CC[C@]3(C)O)C2(C)C)OC1(C)C` [SSJ26, sipholenol A-4-O-acetate], the EC50 in data set [1] came out at 0.26 µM. Further, the IC50 in the data set on SW620/Ad300 and in the data set with SW620 was greater than 30 µM each time.

Regarding `CC1=CCC2C(CCC2(C)O)C(C)(C)C1CCC1C(C)(O)CCC2OC(C)(C)C(OC(=O)c3ccccc3)CCC21C` (stereo not drawn) [SSJ31 (8)], the IC50 in the data set with SW620/Ad300 and in the data set with SW620 was greater than 30 µM in each case.

In the case of `CC1=CCC2C1CC=C(C)C(CCC1C(C)(O)CCC3OC(C)(C)C(OC(=O)c4ccncc4)CCC31C)C2(C)C` (stereo not drawn) [SSJ33 (10)], the IC50 with SW620/Ad300 and in the data set on SW620 was greater than 30 µM in each case.

`CC1=CCC2C(CCC2(C)O)C(C)(C)C1CCC1C(C)(O)CCC2OC(C)(C)C(OCc3ccccc3)CCC21C` (stereo not drawn) [SSJ36 (13)]: the IC50 in the data set with SW620/Ad300 and in the data set with SW620 was greater than 30 µM in each case.

Consider `CC1=CCC2C1CC=C(C)C(CCC1C(C)(O)CCC3OC(C)(C)C(OC(=O)CCC(=O)O)CCC31C)C2(C)C` (stereo not drawn) [SSJ34 (11)], for which the IC50 in the data set on SW620/Ad300 and in the data set on SW620 was greater than 30 µM in each case.

As to `CC1=CCC2C1CC=C(C)C(CCC1C(C)(O)CCC3OC(C)(C)C(O)CCC31C)C2(C)C` (stereo not drawn) [SSJ28 (5)], the concentration for half-maximal inhibition (IC50) in the data set on SW620/Ad300 and in the data set with SW620 was greater than 30 µM in each case.

With `CC1=CCC2C1CC=C(C)C(CCC1C(C)(O)CCC3OC(C)(C)C(OCc4ccccc4)CCC31C)C2(C)C` (stereo not drawn) [SSJ37 (14)], the IC50 in the data set with SW620/Ad300 and in the data set on SW620 was greater than 30 µM throughout.

With `CC1=CC[C@H]2[C@H](CC[C@]2(C)O)C(C)(C)[C@H]1CC[C@H]1[C@]2(C)CC[C@H](OC(=O)c3ccncc3)C(C)(C)O[C@H]2CC[C@@]1(C)O` [SSJ32, sipholenol A-4-O-isonicotinate], in data set [1], the EC50 was 0.6 µM. Moreover, the IC50 in the data set on SW620/Ad300 and with SW620 was greater than 30 µM each time.

On to `CC1=CCC2C1CC=C(C)C(CCC1C(C)(O)CCC3OC(C)(C)C(OC(=O)c4ccccc4)CCC31C)C2(C)C` (stereo not drawn) [SSJ29 (6)], for which the IC50 with SW620/Ad300 and in the data set with SW620 was greater than 30 µM in each case.

Take `CC(=O)OC1CCC2(C)C(CCC(C)(O)C2CCC2C(C)=CCC3C(C)=CCC3C2(C)C)OC1(C)C` (stereo not drawn) [SSJ35 (12)]: the IC50 in the data set with SW620/Ad300 and in the data set with SW620 was greater than 30 µM in each case.

For `CC(=O)OC1CCC2(C)C(CCC(C)(O)C2CCC2C(C)=CCC3C(CCC3(C)OC(C)=O)C2(C)C)OC1(C)C` (stereo not drawn) [SSJ27 (4)], the IC50 in the data set with SW620/Ad300 and in the data set with SW620 was greater than 30 µM in each case.

As to `CC(=O)O[C@H]1C(=O)[C@@]2(C)[C@H]([C@H](OC(=O)c3ccccc3)[C@]3(O)C[C@H](OC(=O)[C@H](O)[C@@H](NC(=O)c4ccccc4)c4ccccc4)C(C)=C1C3(C)C)[C@]1(OC(C)=O)CO[C@@H]1C[C@@H]2O` [paclitaxel], the “[3H]-paclitaxel accumulation and efflux, resistant versus parental cells” value in data set [2] was “while the paclitaxel level significantly decreased in SW620/Ad300 drug-resistant cells, the levels of paclitaxel remained stable in parental SW620”.

Turning to `CC1=CCC2C(CCC2(C)O)C(C)(C)C1CCC1C(C)(O)CCC2OC(C)(C)C(OC(=O)CCC(=O)O)CCC21C` (stereo not drawn) [SSJ25 (2)], the IC50 with SW620/Ad300 and in the data set on SW620 was greater than 30 µM each time.
